# From ChEMBL document CHEMBL4145553, “Design, synthesis, and biological evaluation of novel amide and hydrazide based thioether analogs targeting Histone deacteylase (HDAC) enzymes” (Eur J Med Chem, 2018)
# Columns and labels:
# Assay type in all cases: functional
# [1] = system: A498; experiment: Growth inhibition of human A498 cells incubated for 48 hrs by sulforhodamine B assay; conditions: A498, 48 h
# [2] = system: SF-295; experiment: Growth inhibition of human SF295 cells assessed as cell growth at 10^-5 M incubated for 48 hrs by sulforhodamine B assay relative to control; conditions: SF-295, 48 h, read-out: Activity
# [3] = system: TK-10; experiment: Growth inhibition of human TK10 cells assessed as cell growth at 10^-4 M incubated for 48 hrs by sulforhodamine B assay relative to control; conditions: TK-10, 48 h, read-out: Activity
# [4] = system: NCI-H226; experiment: Growth inhibition of human NCI-H226 cells assessed as cell growth at 10^-4 M incubated for 48 hrs by sulforhodamine B assay relative to control; conditions: NCI-H226, 48 h, read-out: Activity
# [5] = system: SK-MEL-28; experiment: Growth inhibition of human SK-MEL-28 cells assessed as cell growth at 10^-7 M incubated for 48 hrs by sulforhodamine B assay relative to control; conditions: SK-MEL-28, 48 h, read-out: Activity
# [6] = system: SN12C; experiment: Growth inhibition of human SN12C cells assessed as cell growth at 10^-4 M incubated for 48 hrs by sulforhodamine B assay relative to control; conditions: read-out: Activity
# [7] = system: IGROV-1; experiment: Growth inhibition of human IGROV1 cells assessed as cell growth at 10^-4 M incubated for 48 hrs by sulforhodamine B assay relative to control; conditions: IGROV-1, 48 h, read-out: Activity
# [8] = system: NCI-H322M; experiment: Growth inhibition of human NCI-H322M cells assessed as cell growth at 10^-8 M incubated for 48 hrs by sulforhodamine B assay relative to control; conditions: read-out: Activity
# [9] = system: Malme-3M; experiment: Growth inhibition of human MALME-3M cells incubated for 48 hrs by sulforhodamine B assay
# [10] = system: MDA-MB-435; experiment: Induction of apoptosis in human MDA-MB-435 cells assessed as early apoptotic cells by propidium iodide/Annexin V staining based flow cytometry (reference value: 0.25%)
# [11] = system: SF-295; experiment: Growth inhibition of human SF295 cells assessed as cell growth at 10^-8 M incubated for 48 hrs by sulforhodamine B assay relative to control; conditions: SF-295, 48 h, read-out: Activity
# [12] = system: MDA-MB-468; experiment: Growth inhibition of human MDA-MB-468 cells assessed as cell growth at 10^-4 M incubated for 48 hrs by sulforhodamine B assay relative to control; conditions: MDA-MB-468, 48 h, read-out: Activity
# [13] = system: HL-60; experiment: Induction of apoptosis in human HL60 cells assessed as late apoptotic cells by propidium iodide/Annexin V staining based flow cytometry (reference value: 0.54%)
# [14] = system: SF-295; experiment: Growth inhibition of human SF295 cells assessed as cell growth at 10^-6 M incubated for 48 hrs by sulforhodamine B assay relative to control; conditions: SF-295, 48 h, read-out: Activity
# [15] = system: SK-MEL-28; experiment: Growth inhibition of human SK-MEL-28 cells assessed as cell growth at 10^-6 M incubated for 48 hrs by sulforhodamine B assay relative to control; conditions: SK-MEL-28, 48 h, read-out: Activity
# [16] = system: CCRF-CEM; experiment: Growth inhibition of human CCRF-CEM cells assessed as cell growth at 10^-6 M incubated for 48 hrs by sulforhodamine B assay relative to control; conditions: read-out: Activity
# [17] = system: BT-549; experiment: Growth inhibition of human BT549 cells incubated for 48 hrs by sulforhodamine B assay; conditions: BT-549, 48 h
# [18] = system: CAKI-1; experiment: Growth inhibition of human Caki1 cells assessed as cell growth at 10^-5 M incubated for 48 hrs by sulforhodamine B assay relative to control; conditions: CAKI-1, 48 h, read-out: Activity
# [19] = system: COLO 205; experiment: Growth inhibition of human COLO205 cells incubated for 48 hrs by sulforhodamine B assay; conditions: COLO 205, 48 h
# [20] = system: RPMI-8226; experiment: Growth inhibition of human RPMI8226 cells assessed as cell growth at 10^-5 M incubated for 48 hrs by sulforhodamine B assay relative to control; conditions: RPMI-8226, 48 h, read-out: Activity
# [21] = system: MDA-MB-435; experiment: Growth inhibition of human MDA-MB-435 cells assessed as cell growth at 10^-8 M incubated for 48 hrs by sulforhodamine B assay relative to control; conditions: MDA-MB-435, 48 h, read-out: Activity
# [22] = system: A498; experiment: Growth inhibition of human A498 cells assessed as cell growth at 10^-4 M incubated for 48 hrs by sulforhodamine B assay relative to control; conditions: A498, 48 h, read-out: Activity
# [23] = system: OVCAR-3; experiment: Growth inhibition of human OVCAR3 cells assessed as cell growth at 10^-4 M incubated for 48 hrs by sulforhodamine B assay relative to control; conditions: OVCAR-3, 48 h, read-out: Activity
# [24] = system: SF-268; experiment: Growth inhibition of human SF268 cells assessed as cell growth at 10^-8 M incubated for 48 hrs by sulforhodamine B assay relative to control; conditions: SF-268, 48 h, read-out: Activity
# [25] = system: ACHN; experiment: Growth inhibition of human ACHN cells assessed as cell growth at 10^-5 M incubated for 48 hrs by sulforhodamine B assay relative to control; conditions: read-out: Activity
# [26] = system: NCI-H23; experiment: Growth inhibition of human NCI-H23 cells assessed as cell growth at 10^-8 M incubated for 48 hrs by sulforhodamine B assay relative to control; conditions: NCI-H23, 48 h, read-out: Activity
# [27] = system: LOX IMVI; experiment: Growth inhibition of human LOXIMVI cells assessed as cell growth at 10^-4 M incubated for 48 hrs by sulforhodamine B assay relative to control; conditions: read-out: Activity
# [28] = system: UACC-62; experiment: Growth inhibition of human UACC62 cells assessed as cell growth at 10^-5 M incubated for 48 hrs by sulforhodamine B assay relative to control; conditions: UACC-62, 48 h, read-out: Activity
# [29] = system: NCI-H226; experiment: Growth inhibition of human NCI-H226 cells incubated for 48 hrs by sulforhodamine B assay; conditions: NCI-H226, 48 h
# [30] = system: HOP-62; experiment: Growth inhibition of human HOP62 cells assessed as cell growth at 10^-8 M incubated for 48 hrs by sulforhodamine B assay relative to control; conditions: HOP-62, 48 h, read-out: Activity
# [31] = read-out: LC50 (the source's name)
# [32] = read-out: pLC50 (the source's name) (converted)
structure (smiles),measurement,setting,value
CCS/C(Nc1ccccc1)=C(\C#N)C(=O)Nc1ccc(OC)cc1,GI50,[1]; read-out: GI50,2.54 µM
same,CC50,[1]; [31],> 100 µM
same,TGI,[1]; read-out: TGI,26.6 µM
same,GI50,[1]; read-out: pGI50 (converted),2.57 µM
same,CC50,[1]; [32],> 100 µM
same,TGI,[1]; read-out: pTGI (converted),26.9 µM
same,growth at 10 µM,[2],16%
same,growth at 100 µM,[3],24%
same,growth at 100 µM,[4],-15%
same,growth at 0.1 µM,[5],91%
same,growth at 100 µM,[6],16%
same,growth at 100 µM,[7],28%
same,growth at 0.01 µM,[8],95%
same,GI50,[9]; read-out: GI50,47.3 µM
same,CC50,[9]; [31],> 100 µM
same,TGI,[9]; read-out: TGI,> 100 µM
same,GI50,[9]; read-out: pGI50 (converted),46.8 µM
same,CC50,[9]; [32],> 100 µM
same,TGI,[9]; read-out: pTGI,> 100 µM
same,Activity,[10],4.61%
same,growth at 0.01 µM,[11],94%
same,growth at 100 µM,[12],-24%
same,Activity,[13],7.19%
same,growth at 1 µM,[14],82%
same,growth at 1 µM,[15],85%
same,growth at 1 µM,[16],64%
same,GI50,[17]; read-out: GI50,2.8 µM
same,CC50,[17]; [31],> 100 µM
same,TGI,[17]; read-out: TGI,> 100 µM
same,GI50,[17]; read-out: pGI50 (converted),2.82 µM
same,CC50,[17]; [32],> 100 µM
same,TGI,[17]; read-out: pTGI,> 100 µM
same,growth at 10 µM,[18],29%
same,GI50,[19]; read-out: GI50,3.06 µM
same,CC50,[19]; [31],> 100 µM
same,TGI,[19]; read-out: TGI,11.2 µM
same,GI50,[19]; read-out: pGI50 (converted),3.09 µM
same,CC50,[19]; [32],> 100 µM
same,TGI,[19]; read-out: pTGI (converted),11.2 µM
same,growth at 10 µM,[20],6%
same,growth at 0.01 µM,[21],100%
same,growth at 100 µM,[22],-12%
same,growth at 100 µM,[23],-15%
same,growth at 0.01 µM,[24],101%
same,growth at 10 µM,[25],33%
same,growth at 0.01 µM,[26],97%
same,growth at 100 µM,[27],12%
same,growth at 10 µM,[28],21%
same,GI50,[29]; read-out: GI50,5.45 µM
same,CC50,[29]; [31],> 100 µM
same,TGI,[29]; read-out: TGI,50.7 µM
same,GI50,[29]; read-out: pGI50 (converted),5.5 µM
same,CC50,[29]; [32],> 100 µM
same,TGI,[29]; read-out: pTGI (converted),50.1 µM
same,growth at 0.01 µM,[30],92%
CCS/C(Nc1ccccc1)=C(\C#N)C(=O)N/N=C\c1ccc(Cl)cc1Cl,GI50,[1]; read-out: GI50,1.87 µM
same,CC50,[1]; [31],> 100 µM
same,TGI,[1]; read-out: TGI,37.8 µM
same,GI50,[1]; read-out: pGI50 (converted),1.86 µM
same,CC50,[1]; [32],> 100 µM
same,TGI,[1]; read-out: pTGI (converted),38 µM
same,growth at 10 µM,[2],15%
same,growth at 100 µM,[3],42%
same,growth at 100 µM,[4],11%
same,growth at 0.1 µM,[5],95%
same,growth at 100 µM,[6],28%
same,growth at 100 µM,[7],30%
same,growth at 0.01 µM,[8],94%
same,GI50,[9]; read-out: GI50,9.3 µM
same,CC50,[9]; [31],> 100 µM
same,TGI,[9]; read-out: TGI,> 100 µM
same,GI50,[9]; read-out: pGI50 (converted),9.33 µM
same,CC50,[9]; [32],> 100 µM
same,TGI,[9]; read-out: pTGI,> 100 µM
same,Activity,[10],2.52%
same,growth at 0.01 µM,[11],95%
same,growth at 100 µM,[12],-7%
same,Activity,[13],8.54%
same,growth at 1 µM,[14],80%
same,growth at 1 µM,[15],79%
same,growth at 1 µM,[16],82%
same,GI50,[17]; read-out: GI50,2.8 µM
same,CC50,[17]; [31],> 100 µM
same,TGI,[17]; read-out: TGI,> 100 µM
same,GI50,[17]; read-out: pGI50 (converted),2.82 µM
same,CC50,[17]; [32],> 100 µM
same,TGI,[17]; read-out: pTGI,> 100 µM
same,growth at 10 µM,[18],23%
same,GI50,[19]; read-out: GI50,3.09 µM
same,CC50,[19]; [31],> 100 µM
same,GI50,[19]; read-out: pGI50 (converted),3.09 µM
same,CC50,[19]; [32],> 100 µM
same,growth at 10 µM,[20],18%
same,growth at 0.01 µM,[21],95%
same,growth at 100 µM,[22],-2%
same,growth at 100 µM,[23],-23%
same,growth at 0.01 µM,[24],94%
same,growth at 10 µM,[25],43%
same,growth at 0.01 µM,[26],105%
same,growth at 100 µM,[27],22%
same,growth at 10 µM,[28],26%
same,GI50,[29]; read-out: GI50,4 µM
same,CC50,[29]; [31],> 100 µM
same,TGI,[29]; read-out: TGI,> 100 µM
same,GI50,[29]; read-out: pGI50 (converted),3.98 µM
same,CC50,[29]; [32],> 100 µM
same,TGI,[29]; read-out: pTGI (converted),> 100 µM
same,growth at 0.01 µM,[30],93%
